The results in this text go back to PubChem BioAssay (NCI).

Among the test systems are RXF 393 renal; KM12 colon; MDA-MB-435; SF-295 CNS; BT-549 breast; T-47D breast; SNB-19 CNS; SF-539 CNS; SK-MEL-2 melanoma; OVCAR-5 ovarian; HCT-116 colon.
Common to all, as to assay: inhibition of tumour cell growth, NCI panel, 48 h

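Interpolation was linear, between the two tested concentrations surrounding the appropriate level; five concentrations were tested over 48 hours in 96-well plates. Definition used: TGI = concentration required for complete inhibition of growth.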

Turning to `Cc1c2ccccc2c(/C=N/NC(=O)CSCC(=O)N/N=C/c2c3ccccc3c(C)c3ccccc23)c2ccccc12`, the TGI was 54.9 µM in the test on RXF 393 renal; more than 100 µM in the test with KM12 colon; more than 100 µM with MDA-MB-435; 49.9 µM in the test with SF-295 CNS; more than 90.1 µM in the test on BT-549 breast; more than 82.4 µM in the test on T-47D breast. Also, the TGI with SNB-19 CNS was more than 100 µM; with SF-539 CNS it was more than 56.9 µM; in the test on SK-MEL-2 melanoma it was more than 100 µM; in the test on OVCAR-5 ovarian, more than 100 µM; in the test with HCT-116 colon, more than 100 µM.

With `CCCCCCc1cc2cc(C(=O)Nc3nc(C45CC6CC(CC(C6)C4)C5)cs3)c(=O)oc2cc1O`, the TGI was found to be 30.6 µM in the test on RXF 393 renal; 32.6 µM in the test on KM12 colon; 31.4 µM in the test with MDA-MB-435; 23.6 µM in the test with SF-295 CNS; 61 µM in the test with BT-549 breast; 38.1 µM with T-47D breast. Besides, the TGI in the test on SNB-19 CNS turned out to be 60.1 µM; in the test on SF-539 CNS, 38.6 µM; in the test on SK-MEL-2 melanoma, 31.4 µM; with OVCAR-5 ovarian, 71.3 µM; in the test with HCT-116 colon, 13.2 µM.

Consider `COc1nc2ncc([C@@H](OC(C)=O)[C@@H](COC(C)=O)OC(C)=O)nc2c(=O)n1C`, for which the TGI in the test with RXF 393 renal, in the test with KM12 colon, in the test with MDA-MB-435, in the test on SF-295 CNS, with BT-549 breast and in the test with T-47D breast was more than 100 µM each time. Further, the TGI in the test on SNB-19 CNS, in the test on SF-539 CNS, in the test on SK-MEL-2 melanoma, with OVCAR-5 ovarian and with HCT-116 colon was more than 100 µM throughout.

As to `CCCCOc1ccc(/C=C/C2=[N+](CCO)CCO2)cc1`, the TGI in the test on RXF 393 renal was 63.3 µM; with KM12 colon it was more than 100 µM; with MDA-MB-435, more than 100 µM; in the test with SF-295 CNS, more than 100 µM; in the test with BT-549 breast, more than 100 µM; in the test on T-47D breast it was 82.8 µM. Moreover, the TGI in the test with SNB-19 CNS is more than 100 µM; in the test on SF-539 CNS, 96.2 µM; with SK-MEL-2 melanoma it was more than 100 µM; in the test with OVCAR-5 ovarian, more than 100 µM; with HCT-116 colon, more than 100 µM.

Turning to `O=[N+]([O-])C1=Cc2c(O)ccc(O)c2C2OC=CC12` (configuration not stated), the TGI with RXF 393 renal is 29.4 µM; in the test on KM12 colon, 32.5 µM; with MDA-MB-435 it was 6.1 µM; in the test with SF-295 CNS, 32.2 µM; in the test on BT-549 breast, 27.9 µM; in the test on T-47D breast it was more than 71.9 µM. For the same compound, the TGI in the test on SNB-19 CNS turned out to be 52.2 µM; in the test with SF-539 CNS, 47.5 µM; in the test on SK-MEL-2 melanoma, 41 µM; in the test with OVCAR-5 ovarian it was 51.5 µM; in the test with HCT-116 colon, 32.1 µM.

As for `CC(=O)N1N=C(c2ccccc2)NC(=O)C1c1cc(C)c(O)c(C)c1` (configuration not stated), the TGI in the test with RXF 393 renal is 31.2 µM; in the test on KM12 colon it was more than 100 µM; in the test with MDA-MB-435, more than 100 µM; in the test on SF-295 CNS, 43.8 µM; with BT-549 breast it was 54.1 µM; in the test with T-47D breast, 42 µM. For the same compound, the TGI in the test with SNB-19 CNS was 50.9 µM; in the test with SF-539 CNS it was 40.3 µM; in the test on SK-MEL-2 melanoma it was 72.2 µM; in the test on OVCAR-5 ovarian, more than 100 µM; with HCT-116 colon, 54.1 µM.

With `C[C@]12CCC(=O)C=C1CC[C@@H]1[C@@H]2CC[C@]2(C)C(=O)/C(=C/c3ccc([N+](=O)[O-])cc3)C[C@@H]12`, the TGI is 73.5 µM with RXF 393 renal; more than 100 µM with KM12 colon; more than 100 µM in the test on MDA-MB-435; more than 100 µM with SF-295 CNS; more than 100 µM in the test with BT-549 breast; more than 100 µM in the test with T-47D breast. For the same compound, the TGI in the test with SNB-19 CNS, in the test on SF-539 CNS, in the test with SK-MEL-2 melanoma, with OVCAR-5 ovarian and with HCT-116 colon was more than 100 µM each time.

As to `Cn1c2ccccc2n2c(=O)c(-c3ccc(Cl)cc3)nnc12`, the TGI with RXF 393 renal, in the test with KM12 colon, in the test with MDA-MB-435, in the test on SF-295 CNS, in the test with BT-549 breast and in the test with T-47D breast was more than 100 µM in each case. Moreover, the TGI in the test with SNB-19 CNS, in the test on SF-539 CNS, in the test on SK-MEL-2 melanoma, in the test on OVCAR-5 ovarian and in the test with HCT-116 colon was more than 100 µM throughout.

As to `CCCCOC(=O)Nc1ccc(S(=O)(=O)Nc2c(Cl)cccc2Cl)cc1`, the TGI is more than 100 µM in the test on RXF 393 renal; 99.4 µM in the test on KM12 colon; 72.6 µM in the test on MDA-MB-435; more than 100 µM in the test on SF-295 CNS; 60.7 µM in the test with BT-549 breast; 83.8 µM in the test on T-47D breast. The TGI in the test on SNB-19 CNS was more than 100 µM; in the test on SF-539 CNS, 80 µM; in the test on SK-MEL-2 melanoma, 66.8 µM; in the test on OVCAR-5 ovarian, more than 100 µM; with HCT-116 colon it was 57.5 µM.

On to `COc1cc(/C=C2\CC3C4CC=C5C[C@@H](O)CC[C@]5(C)C4CC[C@]3(C)\C2=N\O)cc(OC)c1OC` (some centres not stated), for which the TGI with RXF 393 renal is 25.1 µM; in the test on KM12 colon, 23.5 µM; in the test on MDA-MB-435, more than 100 µM; with SF-295 CNS, 22 µM; with BT-549 breast, 37.2 µM; with T-47D breast it was 18.8 µM. Also, the TGI was more than 100 µM in the test with SNB-19 CNS; 34.7 µM with SF-539 CNS; 17.1 µM in the test on SK-MEL-2 melanoma; 61.1 µM with OVCAR-5 ovarian; 21.2 µM in the test with HCT-116 colon.

On to `C[N+](C)(N)Cc1nc(-c2ccc(Cl)cc2)no1`, for which the TGI with RXF 393 renal, in the test with KM12 colon, in the test with MDA-MB-435, in the test with SF-295 CNS, in the test on BT-549 breast and in the test on T-47D breast was more than 100 µM in each case. The TGI in the test with SNB-19 CNS, in the test on SF-539 CNS, with SK-MEL-2 melanoma, in the test on OVCAR-5 ovarian and in the test on HCT-116 colon was more than 100 µM throughout.

`O=c1[nH]nc(-c2ccc3ccccc3c2)[nH]1`: the TGI with RXF 393 renal, in the test with KM12 colon, in the test with MDA-MB-435, with SF-295 CNS, with BT-549 breast and in the test with T-47D breast was more than 100 µM throughout. In addition, the TGI in the test with SNB-19 CNS, in the test with SF-539 CNS, with SK-MEL-2 melanoma, in the test with OVCAR-5 ovarian and in the test on HCT-116 colon was more than 100 µM each time.
